Measurements published in the kinase profiling compilation of Christmann-Franck et al. (2016).

Experiments:
Assay in all cases: KINOMEscan competition binding
Details in all cases: compound 10.0 µM
RPS6KA3 KD1 (human) = RPS6KA3 KD1 (human) (UniProt P51812)
PKMYT1 (human) = PKMYT1 (human) (UniProt Q99640)
STK4 (human) = STK4 (human) (UniProt Q13043)
LATS2 (human) = LATS2 (human) (UniProt Q9NRM7)
CAMKK1 (human) = CAMKK1 (human) (UniProt Q8N5S9)
MYO3A (human) = MYO3A (human) (UniProt Q8NEV4)
PRKCQ (human) = PRKCQ (human) (UniProt Q04759)
PIM1 (human) = PIM1 (human) (UniProt P11309)
RPS6KA5 KD1 (human) = RPS6KA5 KD1 (human) (UniProt O75582)
CDK17 (human) = CDK17 (human) (UniProt Q00537)
PDGFRB (human) = PDGFRB (human) (UniProt P09619)
Chain of PDGFRB (human) (P09619 whole entry, looked up): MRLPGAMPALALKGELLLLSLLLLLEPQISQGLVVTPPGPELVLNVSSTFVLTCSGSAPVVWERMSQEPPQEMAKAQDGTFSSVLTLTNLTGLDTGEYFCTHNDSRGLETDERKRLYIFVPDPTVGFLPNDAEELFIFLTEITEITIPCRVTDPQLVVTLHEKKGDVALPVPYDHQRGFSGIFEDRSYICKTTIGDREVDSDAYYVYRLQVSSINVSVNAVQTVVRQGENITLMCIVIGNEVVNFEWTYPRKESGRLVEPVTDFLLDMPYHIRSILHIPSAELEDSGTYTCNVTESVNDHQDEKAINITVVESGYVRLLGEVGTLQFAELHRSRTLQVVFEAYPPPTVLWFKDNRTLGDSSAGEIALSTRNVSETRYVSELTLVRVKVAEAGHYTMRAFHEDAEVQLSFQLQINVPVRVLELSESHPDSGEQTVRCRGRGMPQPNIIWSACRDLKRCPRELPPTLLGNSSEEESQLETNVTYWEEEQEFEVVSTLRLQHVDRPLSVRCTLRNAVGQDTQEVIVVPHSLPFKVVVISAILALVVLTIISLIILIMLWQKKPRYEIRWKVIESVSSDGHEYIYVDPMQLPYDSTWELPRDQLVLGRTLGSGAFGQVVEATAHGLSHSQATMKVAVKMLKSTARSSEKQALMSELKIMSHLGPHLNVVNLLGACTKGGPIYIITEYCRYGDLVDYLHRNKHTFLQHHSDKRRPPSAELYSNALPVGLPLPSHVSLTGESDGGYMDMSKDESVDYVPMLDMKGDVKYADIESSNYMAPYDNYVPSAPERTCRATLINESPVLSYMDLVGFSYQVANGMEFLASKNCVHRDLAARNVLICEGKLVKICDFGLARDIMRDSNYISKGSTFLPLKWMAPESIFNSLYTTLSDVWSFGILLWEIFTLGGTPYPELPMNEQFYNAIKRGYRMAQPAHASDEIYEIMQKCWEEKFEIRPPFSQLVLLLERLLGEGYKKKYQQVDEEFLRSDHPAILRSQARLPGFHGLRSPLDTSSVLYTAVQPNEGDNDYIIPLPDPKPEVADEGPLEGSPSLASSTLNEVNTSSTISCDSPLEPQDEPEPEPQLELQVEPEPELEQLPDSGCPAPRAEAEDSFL

[1] = test system: EGFR (human), P00533 [L858R]
NEK11 (human) = NEK11 (human) (UniProt Q8NG66)
CSNK1G1 (human) = CSNK1G1 (human) (UniProt Q9HCP0)
AURKB (human) = AURKB (human) (UniProt Q96GD4)
LYN (human) = LYN (human) (UniProt P07948)
PIP5K1C (human) = PIP5K1C (human) (UniProt O60331)
Chain of PIP5K1C (human) (O60331 whole entry, looked up): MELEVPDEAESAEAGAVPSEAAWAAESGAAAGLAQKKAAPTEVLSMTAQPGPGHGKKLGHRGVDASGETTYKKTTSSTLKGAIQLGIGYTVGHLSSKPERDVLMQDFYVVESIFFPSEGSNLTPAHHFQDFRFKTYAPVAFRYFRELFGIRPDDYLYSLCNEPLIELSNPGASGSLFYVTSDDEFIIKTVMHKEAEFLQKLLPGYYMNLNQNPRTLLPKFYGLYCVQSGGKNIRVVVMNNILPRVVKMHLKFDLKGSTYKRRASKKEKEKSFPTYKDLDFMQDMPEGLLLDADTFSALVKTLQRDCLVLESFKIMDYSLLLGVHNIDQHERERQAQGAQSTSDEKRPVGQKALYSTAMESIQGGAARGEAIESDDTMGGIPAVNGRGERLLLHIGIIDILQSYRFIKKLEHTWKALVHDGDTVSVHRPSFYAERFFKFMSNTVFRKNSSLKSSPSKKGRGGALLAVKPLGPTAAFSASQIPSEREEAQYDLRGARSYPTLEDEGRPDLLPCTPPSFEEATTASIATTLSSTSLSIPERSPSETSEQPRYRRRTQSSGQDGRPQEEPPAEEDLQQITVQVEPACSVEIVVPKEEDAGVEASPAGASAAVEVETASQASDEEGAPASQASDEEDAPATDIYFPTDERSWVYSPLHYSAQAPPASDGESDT

ULK1 (human) = ULK1 (human) (UniProt O75385)
MAPK13 (human) = MAPK13 (human) (UniProt O15264)
[2] = test system: FLT3 (human), P36888 [ITD]
Chain of FLT3 (human), P36888 [ITD] (P36888 whole entry, looked up, change not shown): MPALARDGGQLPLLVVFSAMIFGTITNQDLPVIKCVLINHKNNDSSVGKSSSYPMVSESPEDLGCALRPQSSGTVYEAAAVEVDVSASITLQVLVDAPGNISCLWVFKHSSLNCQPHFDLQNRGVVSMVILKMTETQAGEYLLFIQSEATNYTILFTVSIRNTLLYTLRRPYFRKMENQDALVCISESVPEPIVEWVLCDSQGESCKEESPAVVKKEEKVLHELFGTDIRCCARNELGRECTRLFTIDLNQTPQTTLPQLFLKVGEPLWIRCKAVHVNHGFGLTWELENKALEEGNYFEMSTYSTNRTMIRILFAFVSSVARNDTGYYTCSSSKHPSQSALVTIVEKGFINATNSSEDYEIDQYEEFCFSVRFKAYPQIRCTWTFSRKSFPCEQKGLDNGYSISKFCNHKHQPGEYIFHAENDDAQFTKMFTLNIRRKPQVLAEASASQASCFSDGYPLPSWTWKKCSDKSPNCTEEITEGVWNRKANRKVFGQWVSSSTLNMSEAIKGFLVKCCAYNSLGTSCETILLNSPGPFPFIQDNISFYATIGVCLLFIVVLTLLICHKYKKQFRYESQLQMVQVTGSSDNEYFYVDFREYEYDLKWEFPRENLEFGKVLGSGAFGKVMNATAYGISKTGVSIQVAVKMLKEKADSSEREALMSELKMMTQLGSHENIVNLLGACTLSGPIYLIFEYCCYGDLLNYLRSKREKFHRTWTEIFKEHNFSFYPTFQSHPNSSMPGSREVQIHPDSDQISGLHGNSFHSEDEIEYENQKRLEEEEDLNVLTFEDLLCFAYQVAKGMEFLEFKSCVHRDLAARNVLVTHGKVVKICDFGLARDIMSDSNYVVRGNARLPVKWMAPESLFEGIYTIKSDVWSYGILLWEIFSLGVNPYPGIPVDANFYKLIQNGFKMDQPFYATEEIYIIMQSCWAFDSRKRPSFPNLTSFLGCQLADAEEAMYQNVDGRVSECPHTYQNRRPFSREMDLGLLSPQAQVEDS

NEK7 (human) = NEK7 (human) (UniProt Q8TDX7)
YES1 (human) = YES1 (human) (UniProt P07947)
RPS6KA1 KD2 (human) = RPS6KA1 KD2 (human) (UniProt Q15418)
[3] = test system: MET (human), P08581 [M1250T]
STK10 (human) = STK10 (human) (UniProt O94804)
BMPR1B (human) = BMPR1B (human) (UniProt O00238)
NEK3 (human) = NEK3 (human) (UniProt P51956)
Chain of NEK3 (human) (P51956 whole entry, looked up): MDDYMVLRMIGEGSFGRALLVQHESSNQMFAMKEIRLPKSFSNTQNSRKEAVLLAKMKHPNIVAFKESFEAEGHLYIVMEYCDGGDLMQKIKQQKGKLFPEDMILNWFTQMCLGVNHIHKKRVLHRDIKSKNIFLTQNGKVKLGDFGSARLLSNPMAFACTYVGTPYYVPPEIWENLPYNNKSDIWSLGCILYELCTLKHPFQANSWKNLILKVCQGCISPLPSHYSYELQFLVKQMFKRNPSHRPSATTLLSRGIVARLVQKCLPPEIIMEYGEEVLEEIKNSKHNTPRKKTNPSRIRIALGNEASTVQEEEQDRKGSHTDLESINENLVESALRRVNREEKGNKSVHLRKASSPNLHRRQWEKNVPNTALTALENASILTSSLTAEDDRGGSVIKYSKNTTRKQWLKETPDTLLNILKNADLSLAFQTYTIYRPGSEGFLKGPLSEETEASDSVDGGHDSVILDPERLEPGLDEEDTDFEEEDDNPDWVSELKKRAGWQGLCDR

TLK2 (human) = TLK2 (human) (UniProt Q86UE8)
EGFR (human) = EGFR (human) (UniProt P00533)
CaMK1 (human) = CaMK1 (human) (UniProt Q14012)
STK17A (human) = STK17A (human) (UniProt Q9UEE5)
CDC42BPB (human) = CDC42BPB (human) (UniProt Q9Y5S2)
PIK3CA (human) = PIK3CA (human) (UniProt P42336)
EPHA7 (human) = EPHA7 (human) (UniProt Q15375)
TAOK1 (human) = TAOK1 (human) (UniProt Q7L7X3)
EPHB4 (human) = EPHB4 (human) (UniProt P54760)
[4] = test system: KIT (human), P10721 [V559D]
MARK3 (human) = MARK3 (human) (UniProt P27448)
Chain of MARK3 (human) (P27448 whole entry, looked up): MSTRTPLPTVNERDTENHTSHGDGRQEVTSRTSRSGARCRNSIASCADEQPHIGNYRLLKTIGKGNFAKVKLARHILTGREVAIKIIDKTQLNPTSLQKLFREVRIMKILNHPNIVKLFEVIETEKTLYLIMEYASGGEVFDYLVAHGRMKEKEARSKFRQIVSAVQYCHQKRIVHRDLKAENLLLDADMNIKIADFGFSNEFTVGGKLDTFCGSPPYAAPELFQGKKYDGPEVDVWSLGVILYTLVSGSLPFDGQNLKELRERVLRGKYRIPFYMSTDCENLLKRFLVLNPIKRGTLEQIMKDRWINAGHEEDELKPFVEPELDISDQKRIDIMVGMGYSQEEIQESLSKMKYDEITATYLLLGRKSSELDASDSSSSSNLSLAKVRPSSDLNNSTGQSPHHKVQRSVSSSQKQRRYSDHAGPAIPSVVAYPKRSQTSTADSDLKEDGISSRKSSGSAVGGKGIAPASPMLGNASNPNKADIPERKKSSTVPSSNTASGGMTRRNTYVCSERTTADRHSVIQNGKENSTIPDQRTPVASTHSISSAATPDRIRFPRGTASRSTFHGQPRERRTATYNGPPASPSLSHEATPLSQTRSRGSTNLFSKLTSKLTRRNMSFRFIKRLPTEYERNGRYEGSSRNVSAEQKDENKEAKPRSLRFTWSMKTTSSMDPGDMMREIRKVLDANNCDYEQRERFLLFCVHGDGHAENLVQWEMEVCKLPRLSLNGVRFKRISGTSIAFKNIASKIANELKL

MAP2K3 (human) = MAP2K3 (human) (UniProt P46734)
PLK2 (human) = PLK2 (human) (UniProt Q9NYY3)
GSK3B (human) = GSK3B (human) (UniProt P49841)

Chain of STK4 (human) (Q13043 whole entry, looked up): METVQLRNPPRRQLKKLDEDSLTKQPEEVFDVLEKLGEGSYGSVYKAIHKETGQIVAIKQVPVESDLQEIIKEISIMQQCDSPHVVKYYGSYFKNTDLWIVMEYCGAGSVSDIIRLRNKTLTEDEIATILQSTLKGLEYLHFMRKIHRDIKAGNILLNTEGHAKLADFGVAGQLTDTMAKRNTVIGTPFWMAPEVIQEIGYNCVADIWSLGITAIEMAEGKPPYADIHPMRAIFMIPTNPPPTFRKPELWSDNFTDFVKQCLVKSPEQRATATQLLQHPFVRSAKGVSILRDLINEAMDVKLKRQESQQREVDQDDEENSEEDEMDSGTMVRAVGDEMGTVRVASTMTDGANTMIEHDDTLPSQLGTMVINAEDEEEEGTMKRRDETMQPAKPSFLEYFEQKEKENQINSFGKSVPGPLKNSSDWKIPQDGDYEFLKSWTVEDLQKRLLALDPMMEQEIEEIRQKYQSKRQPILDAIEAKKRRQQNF
Chain of CAMKK1 (human) (Q8N5S9 whole entry, looked up): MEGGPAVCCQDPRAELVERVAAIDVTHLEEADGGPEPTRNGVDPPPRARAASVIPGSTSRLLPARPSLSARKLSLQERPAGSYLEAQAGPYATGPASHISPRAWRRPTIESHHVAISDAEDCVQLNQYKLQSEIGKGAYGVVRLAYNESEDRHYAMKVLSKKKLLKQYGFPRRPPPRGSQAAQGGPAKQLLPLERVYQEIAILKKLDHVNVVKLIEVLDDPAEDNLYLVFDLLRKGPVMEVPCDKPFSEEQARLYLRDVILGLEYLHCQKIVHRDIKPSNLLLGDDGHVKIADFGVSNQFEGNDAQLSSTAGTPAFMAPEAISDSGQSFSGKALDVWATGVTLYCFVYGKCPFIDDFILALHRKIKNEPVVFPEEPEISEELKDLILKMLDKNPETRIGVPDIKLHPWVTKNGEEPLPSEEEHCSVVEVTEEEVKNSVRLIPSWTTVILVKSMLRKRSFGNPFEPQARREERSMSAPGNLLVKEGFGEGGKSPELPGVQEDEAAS

**Q.** Which results are given for `COc1cc(C(=O)N2CCC(N3CCN(C)CC3)CC2)ccc1Nc1ncc2c(n1)N(C)c1ccccc1C(=O)N2C`?
**A.** kinase still bound, per cent of control (RPS6KA3 KD1 (human)): 77%; kinase still bound, per cent of control (PKMYT1 (human)): 80%; kinase still bound, per cent of control (STK4 (human)): 100%; kinase still bound, per cent of control (LATS2 (human)): 95%; kinase still bound, per cent of control (CAMKK1 (human)): 73%; kinase still bound, per cent of control (MYO3A (human)): 94%; kinase still bound, per cent of control (PRKCQ (human)): 100%; kinase still bound, per cent of control (PIM1 (human)): 100%; kinase still bound, per cent of control (RPS6KA5 KD1 (human)): 96%; residual activity (CDK17 (human)): 83%; kinase still bound, per cent of control (PDGFRB (human)): 100%; kinase still bound, per cent of control [1]: 79%; kinase still bound, per cent of control (NEK11 (human)): 100%; kinase still bound, per cent of control (CSNK1G1 (human)): 100%; kinase still bound, per cent of control (AURKB (human)): 38%; kinase still bound, per cent of control (LYN (human)): 100%; kinase still bound, per cent of control (PIP5K1C (human)): 96%; kinase still bound, per cent of control (ULK1 (human)): 80%; kinase still bound, per cent of control (MAPK13 (human)): 72%; kinase still bound, per cent of control [2]: 100%; kinase still bound, per cent of control (NEK7 (human)): 100%; kinase still bound, per cent of control (YES1 (human)): 100%; kinase still bound, per cent of control (RPS6KA1 KD2 (human)): 10%; kinase still bound, per cent of control [3]: 96%; kinase still bound, per cent of control (STK10 (human)): 100%; kinase still bound, per cent of control (BMPR1B (human)): 76%; kinase still bound, per cent of control (NEK3 (human)): 100%; kinase still bound, per cent of control (TLK2 (human)): 99%; kinase still bound, per cent of control (EGFR (human)): 84%; kinase still bound, per cent of control (CaMK1 (human)): 55%; kinase still bound, per cent of control (STK17A (human)): 100%; kinase still bound, per cent of control (CDC42BPB (human)): 100%; kinase still bound, per cent of control (PIK3CA (human)): 74%; kinase still bound, per cent of control (EPHA7 (human)): 97%; kinase still bound, per cent of control (TAOK1 (human)): 28%; kinase still bound, per cent of control (EPHB4 (human)): 100%; kinase still bound, per cent of control [4]: 100%; kinase still bound, per cent of control (MARK3 (human)): 98%; kinase still bound, per cent of control (MAP2K3 (human)): 75%; kinase still bound, per cent of control (PLK2 (human)): 100%; kinase still bound, per cent of control (GSK3B (human)): 88%
